Test results published in PMC11975176 (Clinical Pharmacology in Drug Development, 2025).
Where two headings read alike, the source gives them in different places.

Legend:
[1] = cited from earlier work
[2] = NA (ETV, TFV) plasma PK (NCA) with coadministered bepirovirsen in the Phase 2b B-Clear study; format: in vivo; settings: human, oral; for concentration at 24 h: B-Clear, mean ± SD, read-out: Ctau; for AUC(0-t): read-out: AUC0-24
Experimental: NA plasma PK parameters were calculated using NCA methods with Phoenix WinNonlin Version 8.1.0.3530. PK parameters included Cmax, AUC from time zero to 24 hours after dosing, and plasma concentration at the end of the dosing interval. Calculations were based on the actual sampling times. PK samples in the B‐Clear study were assayed for bepirovirsen, ETV, and TFV in plasma at the bioanalytical facility Labcorp Drug Development, Shanghai, China, using validated liquid–liquid extraction for bepirovirsen, solid‐phase extraction for ETV, and protein precipitation for TFV assays followed by high‐performance liquid chromatography with mass spectrometric detection. All plasma samples were assayed within the established long‐term frozen, freeze/thaw, and processed extract stability.

| Cmax ([2]; 0.5 mg) [ng/mL] | concentration at 24 h ([2]; 0.5 mg, ETV 0.5 mg once daily with bepirovirsen) [ng/mL] | AUC(0-t) ([2]; 0.5 mg) [ng·h/mL] | Cmax ([2]; 25 mg) [ng/mL] | AUC(0-t) ([2]; 25 mg) [ng·h/mL] | Cmax ([2]; 300 mg) [ng/mL] | AUC(0-t) ([2]; 300 mg) [ng·h/mL] | concentration at 24 h ([2]; TFV administered as TAF 25 mg once daily with bepirovirsen) [ng/mL] | concentration at 24 h ([2]; TFV administered as TDF 245 or 300 mg once daily with bepirovirsen) [ng/mL] | SMILES | Cmax ([1]; in vivo, 0.5 mg) [ng/mL] | tmax ([1]; in vivo) | tmax ([1]; after dosing) | AUC0-24 ([1]; in vivo, 25 mg) | Cmax ([1]; in vivo, 25 mg) | AUC0-24 ([1]; in vivo, 300 mg) [ng·h/mL] |
| --- | --- | --- | --- | --- | --- | --- | --- | --- | --- | --- | --- | --- | --- | --- | --- |
| 6.5 ± 2.3 | 0.5 ± 0.1 | 24.4 ± 6.8 |  |  |  |  |  |  | C=C1[C@H](CO)[C@@H](O)C[C@@H]1n1cnc2c(=O)[nH]c(N)nc21 [ETV, entecavir] | 4.2 | approximately 1 hour |  |  |  |  |
|  |  |  | 19.4 ± 5.9 | 308 ± 105 | 319 ± 95.9 | 2750 ± 661 | 10.3 ± 3.5 | 57 ± 17.1 | C[C@H](Cn1cnc2c(N)ncnc21)OCP(=O)(O)O [TFV, tenofovir] |  |  | approximately 1 hour | 400 (35.2) ng•h/mL | 30.0 (24.6) ng/mL | 2290 ± 690 |
